Patent US7094869B2, “Low molecular weight peptidomimetic growth hormone secretagogues” (Genentech, Inc., priority 1994, dated 2006)
Like-named read-outs stand apart in the source and are kept apart here. Non-standard residues stand in square brackets, D forms with d. Residues, ends and D or L forms follow the SMILES beside them. ξ: configuration not given here. *: point of attachment. dNMe2Nal = CN[C@H](Cc1ccc2ccccc2c1)C(=O)O; dPhe(4-Cl) = N[C@H](Cc1ccc(Cl)cc1)C(=O)O; 2Nal = N[C@@H](Cc1ccc2ccccc2c1)C(=O)O; d2Nal = N[C@H](Cc1ccc2ccccc2c1)C(=O)O; ξNMe2Nal = CNC(Cc1ccc2ccccc2c1)C(=O)O; NMeF = CN[C@@H](Cc1ccccc1)C(=O)O; Isonicotinoyl = O=C(c1ccncc1)*; Phe(ol) = N[C@H](CO)Cc1ccccc1; Ac6c = NC1(C(=O)O)CCCCC1; Inp = O=C(O)C1CCNCC1; ξK = NCCCCC(N)C(=O)O; Ava = NCCCCC(=O)O; βAla = NCCC(=O)O

How the values were obtained:
[1] = target: rat pituitary cells (Rattus norvegicus, UniProt O08725); conditions: read-out: PIT Cell EC50, GH release, 15 min incubation
Chain of rat pituitary cells (O08725 whole entry, the tested form may be a part): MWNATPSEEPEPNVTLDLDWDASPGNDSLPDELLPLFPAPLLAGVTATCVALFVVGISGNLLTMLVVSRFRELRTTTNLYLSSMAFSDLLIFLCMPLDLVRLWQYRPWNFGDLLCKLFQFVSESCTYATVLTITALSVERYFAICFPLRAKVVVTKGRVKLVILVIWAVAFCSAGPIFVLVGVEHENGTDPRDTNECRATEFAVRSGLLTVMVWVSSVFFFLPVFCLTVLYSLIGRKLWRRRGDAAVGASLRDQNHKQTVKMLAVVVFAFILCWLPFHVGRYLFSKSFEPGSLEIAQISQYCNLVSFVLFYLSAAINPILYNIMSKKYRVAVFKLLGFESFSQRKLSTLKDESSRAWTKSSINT
Method: Pituitaries from ten rats were removed, the posterior pituitary discarded and the anterior pituitary placed in Hanks' Balanced Salt Solution (HBSS: without calcium chloride, w/o magnesium chloride, w/o magnesium sulfate; Gibco) containing 20 mM HEPES (Gibco) and 100 U/ml penicillin streptomycin (PS: JRH Biosciences). Under sterile conditions, pituitaries were rinsed twice then minced into small fragments with a razor blade. […] After the incubation, fragments were triturated to yield small clumps and single cells. The cells were centrifuged 1000× g for 5 min, resuspended, counted and plated at a final cell concentration of 100,000 cells/ml. Incubation media was DME low glucose media w/NaHCO3 (Gibco) containing 20 mM hepes, 100 U/ml PS and 10% FBS (Hyclone A-111-L). Cells were plated at 0.5 ml per well in 48 well plates (Falcon) and incubated at 37° C. in 5% C02 for three days. For challenges to determine release of other pituitary hormones cells were plated at 200,000 cells per ml with 2 ml per well of a Swell plate (Corning). Challenge: A (inip)bbFK-NH2 stock (or other GHRP) concentration of 1 mM was made in DMSO and diluted with warmed media approximately 30 min prior to use. The highest concentration of DMSO in media was 0.1%. Stock solutions (1 mM) of rat GHRH, somatostatin (Sigma) and GHRP antagonist HwkWfK were made fresh in media and diluted appropriately. The media used in all challenges and washing steps was DME low glucose with 20 mM Hepes, 100 U/ml PS, 10% FBS. Media was warmed to 37° C. and gassed by placing it into the incubator prior to challenge. On day three, the media was discarded and fresh media (approximately 1 ml) added for the first of three washes. After the last wash, the plate was placed back in the incubator for a 15 min pre-incubation. Then cells were washed 2× (with warmed and gassed media) and fresh 0.5 ml media were added for the second 15 min. pre-incubation. After the second pre-incubation cells were washed 2× as above and 0.5 ml of control and test solutions were added for a final 15 min incubation. After this incubation, the media were removed for subsequent GH ELISA. GH ELISA: A two-site ELISA was used to determine rat GH concentration in the media. […] After blocking and washing, standard (rat GH reference preparation: Parlow) and challenge media is diluted 1:20 prior to GH assay were added for a 1 hr room temperature incubation. STATISTICS: The mean for each group was determined and analyzed by one-way analysis of variance with a post-hoc Student-Newman-Keuls. Significance is defined as P<0.05. The EC50 was calculated using a 4-parameter curve-fit program (Kaleidagraph). Three to four independent EC50s were used to derive the mean and SEM. RIA of pituitary hormones: LH, FSH, TSH, and Prolactin were determined with commercially available kits from Amersham, and ACTH levels were determined by a RIA kit from ICN. CALCIUM FLUX EXPERIMENT: Pituitary cells were plated on fibronectin (Collaborative Research) coated two-chambered slide wells (Nunc). After four days in monolayer culture cells were rinsed three times with HBSS (Gibco) in 1% BSA and 15 mM HEPES and then incubated for 30 min at 37° C. with 5 μM Indo-1 AM (Molecular Probes, Eugene) in HBSS also containing 1% pluronic F127 (Molecular Probes). The cells were rinsed once and fresh media added for RT incubation. […] C^++ flux was imaged with a Meridian ACAS 570 using stage scanning at 21 second intervals.

[2] = test system: growth hormone secretion; assay: GHRP induced growth hormone secretion, intravenous administration (Rat IV); format: in vivo; conditions: iv injection, serum GH 10 min after injection
Method: Immature weanling female Sprague Dawley rats were purchased from Charles River Labs (Portage, […].) and group housed with water and food available ad libitum. When the rats were 24-30 days old (weighing 50-90 g) they were anesthetized with pentobarbitone (4 mg in 0.5 ml, approximately 60 mg/kg) given by intraperitoneal injection. The rats were then placed briefly on a heated pad, to distend their tail veins, and given an intravenous tail vein injection of the peptides 20 minutes after receiving the anesthetic. The intravenous injection was of 0.1 ml using a 1 ml syringe. The injections contained graded doses of peptides or the vehicle (vehicle for all peptides given intravenously was a buffer of 20 mM sodium acetate, 45 g/l mannitol, pH 5.0). Ten minutes after the intravenous injection blood was taken by cardiac puncture, using a 3 ml syringe, and the rats were then sacrificed.
The blood was then clotted on ice, centrifuged, serum decanted and frozen for subsequent analysis using the rat GH ELISA described elsewhere in the application. For the rat GH ELISA the serum was diluted 1:50 or 1:250, depending on the expected serum GH concentrations achieved, and assayed in duplicate.

[3] = Table III, formula IV compounds
[4] = Table IV, formula III compounds

NCCCCC(=O)N[C@H](Cc1ccc2ccccc2c1)C(=O)N[C@H](Cc1ccc2ccccc2c1)C(=O)N[C@@H](Cc1ccccc1)C(=O)N[C@H](CCCCN)C(N)=O [(Ava) b b F k amide] (H-[Ava][d2Nal][d2Nal]F[dK]-NH2)
EC50 [1, 3]: 17 nM | RAT IV ED50 ([2]; Table III): 33.3 µg

CN(C(=O)C1CCNCC1)[C@H](Cc1ccc2ccccc2c1)C(=O)N[C@H](Cc1ccc2ccccc2c1)C(=O)N[C@@H](Cc1ccccc1)C(N)=O [(inip) nmb b F amide] (H-[Inp][dNMe2Nal][d2Nal]F-NH2)
EC50 [1, 4]: 0.5 nM | RAT IV ED50 ([2]; Table IV): 5 µg

CC(=O)N[C@H](Cc1ccc2ccccc2c1)C(=O)N[C@@H](Cc1ccc2ccccc2c1)C(=O)N[C@@H](Cc1ccc2ccccc2c1)C(=O)NCCCN [Ac b B B ram, Acetyl-DβNal-βNal-βNal-[N-(3-aminopropyl)] amide]
EC50 ([1]; Table VI, retroinverso compounds of formula V): 4.8 nM | RAT IV ED50 ([2]; Table VI): 100 µg

NCCCC[C@H](NC(=O)[C@H](Cc1ccccc1)NC(=O)[C@@H](Cc1c[nH]c2ccccc12)NC(=O)[C@@H](Cc1ccc2ccccc2c1)NC(=O)[C@@H](N)Cc1c[nH]cn1)C(N)=O [H b w F K amide] (H-H[d2Nal][dW]FK-NH2)
EC50 [1, 3]: 6.8 nM | RAT IV ED50 ([2]; Table III): 4.2 µg

O=C(N[C@H](Cc1ccc2ccccc2c1)C(=O)N[C@H](Cc1ccc2ccccc2c1)C(=O)N[C@H](CO)Cc1ccccc1)C1CCNCC1 [(inip) b b Pol, (inip)-DβNal-DβNal-(L-Phenylalanol)] (H-[Inp][d2Nal][d2Nal][Phe(ol)])
EC50 [1, 4]: 0.2 nM | RAT IV ED50 ([2]; Table IV): 5 µg

NC(=O)[C@H](Cc1ccccc1)NC(=O)[C@@H](Cc1c[nH]c2ccccc12)NC(=O)[C@@H](Cc1ccc2ccccc2c1)NC(=O)C1CCNCC1 [(inip) b w F amide, (inip)-DβNal-(D-Trp)-Phe-amide] (H-[Inp][d2Nal][dW]F-NH2)
EC50 [1, 4]: 0.1 nM | RAT IV ED50 ([2]; Table IV): 0.67 µg

NCCCCNC(=O)[C@@H](Cc1ccc2ccccc2c1)NC(=O)[C@@H](Cc1ccc2ccccc2c1)NC(=O)C1CCNCC1 [(inip) b b bam, (inip)-DβNal-DβNal-[N-(4-aminobutyl)] amide]
EC50 [1, 4]: 18.5 nM | RAT IV ED50 ([2]; Table IV): 3.3 µg

CN(C(=O)[C@@H](Cc1ccc2ccccc2c1)NC(=O)[C@@H](Cc1ccc2ccccc2c1)NC(=O)C1CCNCC1)[C@@H](Cc1ccccc1)C(N)=O [(inip) bb nmF amide] (H-[Inp][d2Nal][d2Nal][NMeF]-NH2)
EC50 [1, 4]: 0.6 nM | RAT IV ED50 ([2]; Table IV): 5 µg

CN(C(=O)C1CCNCC1)C(Cc1ccc2ccccc2c1)C(=O)N[C@H](Cc1c[nH]c2ccccc12)C(=O)N[C@@H](Cc1ccccc1)C(=O)NC(CCCCN)C(N)=O (stereo partly drawn) [(inip) nmb w F K amide, (inip)-(N-Me-DβNal)-DTrp-Phe-Lys-amide] (H-[Inp][ξNMe2Nal][dW]F[ξK]-NH2)
EC50 [1, 3]: 0.2 nM | RAT IV ED50 ([2]; Table III): 0.2 µg

NCCCC[C@H](NC(=O)[C@H](Cc1ccccc1)NC(=O)[C@@H](Cc1c[nH]c2ccccc12)NC(=O)[C@@H](Cc1ccc2ccccc2c1)NC(=O)CN)C(N)=O [G b w F K amide] (H-G[d2Nal][dW]FK-NH2)
EC50 [1, 3]: 0.8 nM | RAT IV ED50 ([2]; Table III): 4.8 µg

NC(=O)[C@H](Cc1ccccc1)NC(=O)[C@@H](Cc1ccc2ccccc2c1)NC(=O)[C@@H](Cc1ccc(Cl)cc1)NC(=O)C1CCNCC1 [(inip) chf b F amide] (H-[Inp][dPhe(4-Cl)][d2Nal]F-NH2)
EC50 [1, 4]: 2.2 nM | RAT IV ED50 ([2]; Table IV): 10 µg

CN(C(=O)C1CCNCC1)[C@H](Cc1ccc2ccccc2c1)C(=O)N[C@@H](Cc1ccc2ccccc2c1)C(=O)N[C@@H](Cc1ccccc1)C(=O)O [(inip) nmb B F acid] (H-[Inp][dNMe2Nal][2Nal]F-OH)
EC50 [1, 4]: 7 nM | RAT IV ED50 ([2]; Table IV): 100 µg

NCCCCC(=O)N[C@H](Cc1ccc2ccccc2c1)C(=O)N[C@H](Cc1ccc2ccccc2c1)C(=O)N[C@@H](Cc1ccc2ccccc2c1)C(=O)N[C@@H](CCCCN)C(N)=O [(Ava) b b B K amide] (H-[Ava][d2Nal][d2Nal][2Nal]K-NH2)
EC50 [1, 3]: 0.7 nM | RAT IV ED50 ([2]; Table III): 50 µg

NCCCC[C@H](NC(=O)[C@H](Cc1ccccc1)NC(=O)[C@@H](Cc1ccc2ccccc2c1)NC(=O)[C@@H](Cc1ccc2ccccc2c1)NC(=O)c1ccncc1)C(N)=O [(pyc) b b F K amide] (Isonicotinoyl-[d2Nal][d2Nal]FK-NH2)
EC50 [1, 3]: > 300 nM | RAT IV ED50 ([2]; Table III): 200 µg

NC(=O)CCN(CCc1ccccc1)C(=O)[C@@H](Cc1ccc2ccccc2c1)NC(=O)[C@@H](Cc1ccc2ccccc2c1)NC(=O)C1CCNCC1 [(inip) b b feb amide]
EC50 [1, 4]: 0.3 nM | RAT IV ED50 ([2]; Table IV): 0.67 µg

NC(=O)CCNC(=O)[C@@H](Cc1ccc2ccccc2c1)NC(=O)[C@@H](Cc1ccc2ccccc2c1)NC(=O)C1CCNCC1 [(inip) b b bA amide] (H-[Inp][d2Nal][d2Nal][βAla]-NH2)
EC50 [1, 4]: 10 nM | RAT IV ED50 ([2]; Table IV): 10 µg

NC(=O)C1(NC(=O)[C@@H](Cc2ccc3ccccc3c2)NC(=O)[C@@H](Cc2ccc3ccccc3c2)NC(=O)C2CCNCC2)CCCCC1 [(inip) b b Abx amide] (H-[Inp][d2Nal][d2Nal][Ac6c]-NH2)
EC50 [1, 4]: 13 nM | RAT IV ED50 ([2]; Table IV): 100 µg

O=C(N[C@H](Cc1ccc2ccccc2c1)C(=O)N[C@@H](CO)Cc1ccc2ccccc2c1)C1CCNCC1 [(inip) b bol]
EC50 ([1]; Table V, formula II compounds): 2 nM | RAT IV ED50 ([2]; Table V): 10 µg

NC(=O)[C@H](Cc1ccccc1)NC(=O)[C@@H](Cc1c[nH]c2ccccc12)NC(=O)[C@@H](Cc1c[nH]c2ccccc12)NC(=O)C1CCNCC1 [(inip) w w F amide] (H-[Inp][dW][dW]F-NH2)
EC50 [1, 4]: 0.9 nM | RAT IV ED50 ([2]; Table IV): 5 µg

CN(C(=O)C1CCNCC1)[C@H](Cc1ccc2ccccc2c1)C(=O)N[C@H](Cc1ccc2ccccc2c1)C(=O)N[C@@H](Cc1ccccc1)C(=O)O [(inip) nmb b F acid] (H-[Inp][dNMe2Nal][d2Nal]F-OH)
EC50 [1, 4]: 1.4 nM | RAT IV ED50 ([2]; Table IV): 5 µg

O=C(N[C@H](Cc1ccc2ccccc2c1)C(=O)N[C@H](Cc1ccc2ccccc2c1)C(=O)N[C@@H](Cc1ccc(O)cc1)C(=O)O)C1CCNCC1 [(inip) b b Y acid] (H-[Inp][d2Nal][d2Nal]Y-OH)
EC50 [1, 4]: 5 nM | RAT IV ED50 ([2]; Table IV): 10 µg

NCCCCC(=O)N[C@H](Cc1ccc2ccccc2c1)C(=O)N[C@H](Cc1ccc2ccccc2c1)C(=O)N[C@@H](Cc1ccccc1)C(=O)N[C@H](CC(N)=O)C(N)=O [(Ava) b b F n amide] (H-[Ava][d2Nal][d2Nal]F[dN]-NH2)
EC50 [1, 3]: 10 nM | RAT IV ED50 ([2]; Table III): 12.5 µg

O=C(N[C@H](Cc1ccc2ccccc2c1)C(=O)N[C@H](Cc1ccc2ccccc2c1)C(=O)N[C@@H](Cc1ccccc1)C(=O)O)C1CCNCC1 [(inip) b b F acid, (inip)-DβNal-DβNal-Phe] (H-[Inp][d2Nal][d2Nal]F-OH)
EC50 [1, 4]: 0.2 nM | RAT IV ED50 ([2]; Table IV): 2 µg
